In PubChem BioAssay (NCI):
Several values for one entry are separate records, joined by “and”; a condition that tells them apart may be missing. Equal values may be shown once.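 Each compound was tested at five concentrations against cells in 96-well plates for 48 hours. GI50 marks 50% less growth. TGI is the concentration that stops growth completely.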

How the values were obtained:
Experiment in all cases: NCI anticancer screen, dose series, 48 h
[1] = system: A549 NSCLC
[2] = system: ACHN renal
[3] = system: CCRF-CEM leukemia
[4] = system: COLO 205 colon
[5] = system: EKVX NSCLC
[6] = system: HCC-2998 colon
[7] = system: U251 CNS
[8] = system: DU-145 prostate
[9] = system: RPMI-8226 leukemia
[10] = system: T-47D breast

Row | Compound | TGI [1] | TGI [2] | TGI [3] [µM] | TGI [4] | TGI [5] | TGI [6] | TGI [7] | GI50 [1] [µM] | GI50 [2] [µM] | GI50 [3] [µM] | GI50 [8] [µM] | TGI [8] [µM] | GI50 [6] [µM] | GI50 [7] [µM] | GI50 [4] [µM] | GI50 [5] [µM] | GI50 [9] [µM] | TGI [9] [µM] | GI50 [10] [µM] | TGI [10] [µM]
1 | CC(C)N(C(=O)C12C3C4C1C1C2C3C41C(O)C(C)(C)C)C(C)C (stereo unspecified) | > 50 µM | > 50 µM | > 50 | > 50 µM | > 50 µM | > 50 µM | > 50 µM |  |  |  |  |  |  |  |  |  |  |  |  | 
2 | COc1cc(Nc2ccnc(N3CCN(c4ccnc5cc(Cl)ccc45)CC3)n2)cc(OC)c1 | > 26.7 µM | > 100 µM | > 100 |  |  | > 100 µM | > 26.9 µM | 1.81 | 2.04 | 1.38 | 3.25 | > 100 | 2.8 | 1.66 |  |  |  |  |  | 
3 | CC[O-].CC[O-].O=C1C(=C([O-])c2ccccc2)C(=O)c2ccccc21.O=C1C(=C([O-])c2ccccc2)C(=O)c2ccccc21.[Ti+4] | > 100 µM | > 100 µM | > 100 | > 100 µM | > 100 µM | > 100 µM |  | > 100 | > 100 | > 100 |  |  | > 100 |  | 29.2 | 24.3 | 42.5 | > 100 |  | 
4 | COc1ccc([C@H]2CC(=O)N3CCCC3N2)cc1 (stereo partly specified) | > 100 µM | > 100 µM | > 100 | > 100 µM | > 100 µM | > 100 µM | > 100 µM |  |  |  |  |  |  |  |  |  |  | > 100 |  | 
5 | C/C(=N\O)c1ccc(Nc2cc(-n3nnc4ccccc43)nc3ccccc23)cc1 | > 41.3 µM | 21.8 µM | 30.3 | > 39.2 µM | > 28.9 µM |  | 25.3 µM | 8.42 | 5.82 | 2.75 | 7.7 | 30 |  | 6.68 | 9.47 | 6.97 | 3.19 | 12.8 | 8.23 | > 34.7
6 | CC(=O)N(CCN)CCN | > 10 µM | > 100 µM | > 10 | > 10 µM | > 100 µM | > 10 µM | > 10 µM |  |  |  |  |  |  |  |  |  |  | > 10 |  | 
7 | C=C(C)C1CC2C(C)=C(OC(C)=O)C1n1c(=O)c3cc4ccccc4cc3c(=O)n12 (stereo unspecified) | > 100 µM | > 100 µM |  | > 100 µM | > 100 µM | > 100 µM | > 100 µM |  |  |  |  |  |  |  |  |  |  | > 81.3 |  | 
8 | COc1cc(C2c3cc4c(cc3[C@@H](Nc3ccc(N(C)C)cc3)[C@H]3COC(=O)C23)OCO4)cc(OC)c1O (stereo partly specified) | 2.02 µM and 3.09 µM | 0.999 µM and 1.34 µM |  | 8.04 µM and 18.9 µM | 9.57 µM and 9.64 µM | 3.89 µM and 8.71 µM | 1.33 µM and 3.37 µM | 0.173 | 0.0694 |  |  |  | 2.36 | 0.195 | 3.51 | 2.37 |  |  |  | 
9 | CC12CC3(C)CC(C)(C1)CC(N=[N+]=[N-])(C2)C3 | > 100 µM | > 100 µM | > 100 | > 100 µM | > 100 µM | > 100 µM | > 100 µM |  |  |  |  |  |  |  |  |  |  | > 100 |  | 
10 | Cc1cc(O)c2c(c1)C(O)(c1ccc3c(c1O)C(=O)c1c(O)cc(C)cc1C3(O)C1OC(CO)C(O)C(O)C1O)c1cccc(O)c1C2=O (stereo unspecified) | 32.2 µM | 25.8 µM | 25.8 |  | 28.2 µM | 29.5 µM | 23.8 µM |  |  |  |  |  |  |  |  |  |  | > 100 |  | 
11 | Cc1cc(Cl)ccc1NC(=O)C(=O)Cc1nc2ccc(C(=O)c3ccccc3)cc2[nH]c1=O | > 100 µM | > 100 µM | > 100 | > 100 µM | > 100 µM | > 100 µM |  |  |  |  |  |  |  |  |  |  |  |  |  | 
12 | C/C(=N/N(C=O)C[n+]1ccccc1)C(CN(CC(C)C)CC(C)C)C(=O)Nc1ccc(C)cc1C (stereo unspecified) | > 100 µM | > 100 µM | > 100 | > 100 µM | > 100 µM | > 100 µM |  |  |  |  |  |  |  |  |  |  |  | > 100 |  | 
13 | NS(=O)(=O)c1ccc(N2Cc3cc(Cl)ccc3OC3=C2C(=O)N(CC2CCCCC2)C3=O)cc1 | 3.99 µM | 0.883 µM |  | 2.28 µM | 2.91 µM | 3.51 µM | 2.65 µM | 2.13 | 0.286 |  | 1.06 | 2.25 | 1.84 | 1.3 | 0.716 | 1.47 | 0.227 | 0.575 | 0.365 | 1.86
14 | O=C(c1ccccc1)c1c(CC(O)c2cccnc2)n(C(=O)c2ccccc2)c2ccccc12 (stereo unspecified) | > 100 µM | 82.7 µM | 63.4 | 40.6 µM |  | 35 µM | 30.7 µM |  |  |  |  |  |  |  |  |  |  | 44.2 |  | 
15 | Clc1ccccc1NN(Cc1ccccn1)c1ccccc1Cl | 37.2 µM | > 100 µM |  | 31.3 µM | 52.5 µM |  | 29.6 µM |  |  |  |  | > 100 |  |  |  |  |  | 61.4 |  | > 100
16 | COc1ccc(OC)c(-c2cc(-c3ccccc3)nn2-c2ccc(S(=O)(=O)NC(C)=O)cc2)c1 | > 100 µM |  | 6.55 |  | 41.8 µM | 13.8 µM |  | 22.9 |  | 2.13 | 17.9 | 36.9 | 3.08 |  |  | 22.8 | 1.97 | 4.36 |  | 
17 | Cc1cc(C)c2c(c1)CN1CN2Cc2cc(C)cc(C)c21 | > 100 µM | 35.9 µM | 68.2 | 42.6 µM | 35.1 µM |  | 32.3 µM |  |  |  |  |  |  |  |  |  |  | 52.2 |  | 
18 | O=c1oc2ccccc2c(O)c1C=NC(=S)c1ccncc1 | > 100 µM | > 100 µM |  | > 100 µM | > 100 µM | > 100 µM | > 100 µM |  |  |  |  | > 100 |  |  |  |  |  |  |  | > 100
19 | N=C(N)SCc1cn2ccccc2n1 | > 100 µM | > 100 µM | > 100 | > 100 µM | > 100 µM | > 100 µM | > 100 µM |  |  |  |  |  |  |  |  |  |  | > 100 |  | 
20 | O=C(CCc1nc(=S)[nH][nH]1)NC12CC3CC(CC(C3)C1)C2 | > 100 µM | > 100 µM | > 100 | > 100 µM | > 100 µM | > 100 µM | > 100 µM |  |  |  |  |  |  |  |  |  |  |  |  | 
21 | Cc1nc2c(n1CC(C)(C)C)C(=O)c1ccccc1C2=O | > 100 µM | > 100 µM | > 100 | > 100 µM | > 100 µM | > 100 µM | > 100 µM |  |  |  |  |  |  |  |  |  |  |  |  | 
